Results as given in patent US20150157739A1, “Imidazo[2,1]thiazol-3-one derivatives” (Hoffmann-La Roche Inc., priority 2012, published 2015).

Tests used:
[1] = molecular target: T1, aggregated synthetic Aβ40 (Homo sapiens, UniProt P05067); test: Thiazin-red R displacement fluorescence assay on aggregated A-beta; type: binding; settings: displacement of Thiazin-red R from aggregated Aβ40; compound 0.3 nM to 10000 nM; 30 min room temperature; Ex 531 nm/Em 595 nm
T1 construct: Synthetic Aβ40 is aggregated at a concentration of 50 μM
T1 sequence (P05067 672-711 limits assumed): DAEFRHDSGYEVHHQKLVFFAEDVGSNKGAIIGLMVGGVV
Description: (§1) Assay for Determination of […] for Tau and A-Beta
(§2) Recombinant human-microtubule associated protein Tau purified from E. coli is aggregated at a concentration of 5 μM with Arachidonic Acid (100 μM) in Tris 10 mM pH8, 24 h at 37° C. Synthetic Aβ40 is aggregated at a concentration of 50 μM with Arachidonic Acid (100 μM) in Tris 10 mM pH8, for three days at 37° C., under shaking at 150 rpm.
(§3) A saturation analysis of Thiazin-red R to the aggregated proteins is done to determine the affinity (Kd) of the Thiazin-red R to the aggregated protein.
(§4) Thiazin-red R will be added at the concentration corresponding to the Kd to the respective aggregated protein binding site, to induce a fluorescent signal that can be inhibited by the addition of a displacer compound.
(§5) In parallel, auto fluorescence of the compound is measured together with the aggregated proteins, but without Thiazin-red R. As negative control, ligand and aggregated protein is used and as positive control, Thiazin-red R, reference compound with known activity and aggregated protein is used.
(§6) Assay is performed in Perkin Elmer OptiPlate 384, black, 45 ul assay volume, assay buffer is DPBS no CaCl2 no MgCl2 (GIBCO N. 14020). Tested compounds are diluted in DMSO and 2 μl is added to the assay ([…]). Assay is started by the addition of the aggregated protein (competitive condition). Plates are shortly shacked (1 min with Sterico variomag teleshake) and incubated for 30 min at room temperature. Measurement are done with En:Vision (Perkin Elmer), at Excitation 531 nm/Emission 595 nm.

[2] = molecular target: T2, aggregated recombinant human-microtubule associated protein Tau (Homo sapiens, UniProt P10636); test: Thiazin-red R displacement fluorescence assay on aggregated Tau; type: binding; settings: displacement of Thiazin-red R from aggregated Tau; compound 0.3 nM to 10000 nM; 30 min room temperature; Ex 531 nm/Em 595 nm
T2 construct: Recombinant human-microtubule associated protein Tau purified from E. coli is aggregated at a concentration of 5 μM with Arachidonic Acid (100 μM) in Tris 10 mM pH8, 24 h at 37° C
T2 sequence (P10636 whole entry): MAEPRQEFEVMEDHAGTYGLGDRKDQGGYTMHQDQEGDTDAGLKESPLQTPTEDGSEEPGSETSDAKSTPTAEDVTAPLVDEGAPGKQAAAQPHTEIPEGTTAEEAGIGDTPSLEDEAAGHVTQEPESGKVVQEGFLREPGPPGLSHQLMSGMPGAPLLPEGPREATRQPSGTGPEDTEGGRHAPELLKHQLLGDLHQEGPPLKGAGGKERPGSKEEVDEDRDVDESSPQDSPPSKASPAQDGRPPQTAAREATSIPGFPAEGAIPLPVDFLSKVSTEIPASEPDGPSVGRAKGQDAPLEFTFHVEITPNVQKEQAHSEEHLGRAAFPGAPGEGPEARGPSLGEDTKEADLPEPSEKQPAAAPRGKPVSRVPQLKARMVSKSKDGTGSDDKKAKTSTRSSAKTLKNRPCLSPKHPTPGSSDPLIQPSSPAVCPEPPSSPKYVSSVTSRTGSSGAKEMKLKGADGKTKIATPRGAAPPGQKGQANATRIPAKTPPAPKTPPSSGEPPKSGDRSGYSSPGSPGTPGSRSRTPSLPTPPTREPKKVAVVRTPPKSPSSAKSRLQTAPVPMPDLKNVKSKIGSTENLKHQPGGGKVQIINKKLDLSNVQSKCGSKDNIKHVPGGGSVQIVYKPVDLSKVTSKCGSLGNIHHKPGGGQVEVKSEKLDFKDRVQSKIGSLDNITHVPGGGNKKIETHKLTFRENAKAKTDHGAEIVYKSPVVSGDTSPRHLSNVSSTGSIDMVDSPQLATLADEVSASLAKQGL
Description: as §1, §2, §3, §4, §5, §6

In the case of `COc1cc(/C=c2\sc3nc(-c4ccc5c(c4)OCCO5)cn3c2=O)cc(Cl)c1O` [Example 100, 2-[1-(3-Chloro-4-hydroxy-5-methoxy-phenyl)-meth-(Z)-ylidene]-6-(2,3-dihydro-benzo[1,4]dioxin-6-yl)-imidazo[2,1-b]thiazol-3-one], the IC50 [1] is reported as 1060 nM and the IC50 [2] is reported as 9 nM.

`COc1ccc(-c2nc3s/c(=C\c4cc(F)c(O)c(OC)c4)c(=O)n3c2C)cc1` [Example 15, 2-[1-(3-Fluoro-4-hydroxy-5-methoxy-phenyl)-meth-(Z)-ylidene]-6-(4-methoxy-phenyl)-5-methyl-imidazo[2,1-b]thiazol-3-one] was tested, and the IC50 [1] was 437 nM and the IC50 [2] was 53 nM.

`COc1cc(/C=c2\sc3nc(-c4ccccc4C)cn3c2=O)ccc1O` [Example 11, 2-[1-(4-hydroxy-3-methoxy-phenyl)-meth-(Z)-ylidene]-6-o-tolyl-imidazo[2,1-b]thiazol-3-one] gave an IC50 [1] of 1280 nM and an IC50 [2] of 837 nM.

Work on `COc1cc(/C=c2\sc3nc(-c4ccc(C(=O)OCCF)cc4)cn3c2=O)cc(Cl)c1O` [Example 148, 4-{2-[1-(3-Chloro-4-hydroxy-5-methoxy-phenyl)-meth-(Z)-ylidene]-3-oxo-2,3-dihydro-imidazo[2,1-b]thiazol-6-yl}-benzoic acid 2-fluoro-ethyl ester] yielded an IC50 [1] of 38 nM and an IC50 [2] of 4 nM.

`COc1cc(/C=c2\sc3nc(-c4ccc(Cl)cc4)cn3c2=O)cc(OC)c1O` [Example 2, 6-(4-Chloro-phenyl)-2-[1-(4-hydroxy-3,5-dimethoxy-phenyl)-meth-(Z)-ylidene]-imidazo[2,1-b]thiazol-3-one] was tested, and the IC50 [1] was 7 nM and the IC50 [2] was 2 nM.

`COc1cc(/C=c2\sc3nc(-c4ccccc4F)cn3c2=O)cc(Cl)c1O` [Example 53, 2-[1-(3-Chloro-4-hydroxy-5-methoxy-phenyl)-meth-(Z)-ylidene]-6-(2-fluoro-phenyl)-imidazo[2,1-b]thiazol-3-one] was tested, and the IC50 [1] was 5650 nM and the IC50 [2] was 16 nM.

`COc1cc(/C=c2\sc3nc(-c4cccc(OC(F)F)c4)cn3c2=O)cc(Cl)c1O` [Example 62, 2-[1-(3-Chloro-4-hydroxy-5-methoxy-phenyl)-meth-(Z)-ylidene]-6-(3-(difluoromethoxy)-phenyl)-imidazo[2,1-b]thiazol-3-one] showed an IC50 [1] of 4160 nM and an IC50 [2] of 6 nM.

`COc1cc(/C=c2\sc3nc(-c4ccc(F)c(C(F)(F)F)c4)cn3c2=O)cc(Br)c1O` [Example 46, 2-[1-(3-bromo-4-hydroxy-5-methoxy-phenyl)-meth-(Z)-ylidene]-6-(4-fluoro-3-(trifluoromethyl)-phenyl)-imidazo[2,1-b]thiazol-3-one] showed an IC50 [1] of 5910 nM and an IC50 [2] of 28 nM.

In the case of `Cc1cc(-c2cn3c(=O)/c(=C/c4cc(Cl)c(O)c(OCCCF)c4)sc3n2)cc(C)n1` [Example 153, 2-[1-[3-Chloro-5-(3-fluoro-propoxy)-4-hydroxy-phenyl]-meth-(Z)-ylidene]-6-(2,6-dimethyl-pyridin-4-yl)-imidazo[2,1-b]thiazol-3-one], the IC50 [1] is reported as 605 nM and the IC50 [2] is reported as 46 nM.

Work on `COc1cccc(-c2cn3c(=O)/c(=C/c4cc(Cl)c(O)c(OC)c4)sc3n2)c1` [Example 61, 2-[1-(3-Chloro-4-hydroxy-5-methoxy-phenyl)-meth-(Z)-ylidene]-6-(3-methoxy-phenyl)-imidazo[2,1-b]thiazol-3-one] yielded an IC50 [1] of 395 nM and an IC50 [2] of 4 nM.

`CCc1cccc(-c2cn3c(=O)/c(=C/c4cc(Cl)c(O)c(OC)c4)sc3n2)c1` [Example 54, 2-[1-(3-Chloro-4-hydroxy-5-methoxy-phenyl)-meth-(Z)-ylidene]-6-(3-ethyl-phenyl)-imidazo[2,1-b]thiazol-3-one] gave an IC50 [1] of 653 nM and an IC50 [2] of 25 nM.

`CCCOc1cc(/C=c2\sc3nc(-c4ccc(Cl)cc4)cn3c2=O)cc(OC)c1O` [Example 31, 6-(4-Chloro-phenyl)-2-[1-(4-hydroxy-3-methoxy-5-propoxy-phenyl)-meth-(Z)-ylidene]-imidazo[2,1-b]thiazol-3-one] gave an IC50 [1] of 12 nM and an IC50 [2] of 3 nM.

Compound `COc1ccc(-c2cn3c(=O)/c(=C/c4cc(Cl)c(O)c(OC)c4)sc3n2)cc1OC` [Example 99, 2-[1-(3-Chloro-4-hydroxy-5-methoxy-phenyl)-meth-(Z)-ylidene]-6-(3,4-dimethoxy-phenyl)-imidazo[2,1-b]thiazol-3-one] has an IC50 [1] of 325 nM and an IC50 [2] of 14 nM.

`COc1cccc(-c2cn3c(=O)/c(=C/c4cc(F)c(O)c(OC)c4)sc3n2)c1` [Example 47, 2-[1-(3-Fluoro-4-hydroxy-5-methoxy-phenyl)-meth-(Z)-ylidene]-6-(3-methoxy-phenyl)-imidazo[2,1-b]thiazol-3-one] showed an IC50 [1] of 540 nM and an IC50 [2] of 17 nM.

Work on `CCCOc1cc(/C=c2\sc3nc(-c4cccc(OC(F)(F)F)c4)cn3c2=O)cc(OC)c1O` [Example 33, 2-[1-(4-Hydroxy-3-methoxy-5-propoxy-phenyl)-meth-(Z)-ylidene]-6-(3-trifluoromethoxy-phenyl)-imidazo[2,1-b]thiazol-3-one] yielded an IC50 [1] of 256 nM and an IC50 [2] of 25 nM.

With `CCCOc1cc(/C=c2\sc3nc(-c4cnc[nH]4)cn3c2=O)cc(Cl)c1O` [Example 119, 2-[1-(3-Chloro-4-hydroxy-5-propoxy-phenyl)-meth-(Z)-ylidene]-6-(3H-imidazol-4-yl)-imidazo[2,1-b]thiazol-3-one] the IC50 [1] was 3120 nM and the IC50 [2] was 60 nM.

Compound `CNC(=O)c1ccc(-c2cn3c(=O)/c(=C/c4cc(Cl)c(O)c(OC)c4)sc3n2)cc1` [Example 114, 4-{2-[1-(3-Chloro-4-hydroxy-5-methoxy-phenyl)-meth-(Z)-ylidene]-3-oxo-2,3-dihydro-imidazo[2,1-b]thiazol-6-yl}-N-methyl-benzamide] has an IC50 [1] of 352 nM and an IC50 [2] of 6 nM.

For `COc1cc(/C=c2\sc3nc(-c4ccnc(C)c4)cn3c2=O)cc(F)c1O` [Example 76, 2-[1-(3-Fluoro-4-hydroxy-5-methoxy-phenyl)-meth-(Z)-ylidene]-6-(2-methylpyridin-4-yl)-imidazo[2,1-b]thiazol-3-one], the IC50 [1] was 260 nM and the IC50 [2] was 6 nM.

`COc1cc(/C=c2\sc3nc(-c4ccc(N5CCOCC5)cc4)cn3c2=O)cc(Cl)c1O` [Example 92, 2-[1-(3-Chloro-4-hydroxy-5-methoxy-phenyl)-meth-(Z)-ylidene]-6-(4-morpholinophenyl)-imidazo[2,1-b]thiazol-3-one] was tested, and the IC50 [1] was 482 nM and the IC50 [2] was 39 nM.

`COc1cc(/C=c2\sc3nc(-c4ccc(Cl)cc4)cn3c2=O)cc(O)c1O` [Example 8, 6-(4-Chloro-phenyl)-2-[1-(3,4-dihydroxy-5-methoxy-phenyl)-meth-(Z)-ylidene]-imidazo[2,1-b]thiazol-3-one] was tested, and the IC50 [1] was 18 nM and the IC50 [2] was 5 nM.

For `COc1cc(/C=c2\sc3nc(-c4cccc(F)c4)cn3c2=O)cc(Cl)c1O` [Example 57, 2-[1-(3-Chloro-4-hydroxy-5-methoxy-phenyl)-meth-(Z)-ylidene]-6-(3-fluoro-phenyl)-imidazo[2,1-b]thiazol-3-one], the IC50 [1] was 3320 nM and the IC50 [2] was 6 nM.

Compound `COc1cc(/C=c2\sc3nc(-c4cccc(F)c4)cn3c2=O)cc(F)c1O` [Example 58, 2-[1-(3-Fluoro-4-hydroxy-5-methoxy-phenyl)-meth-(Z)-ylidene]-6-(3-fluoro-phenyl)-imidazo[2,1-b]thiazol-3-one] has an IC50 [1] of 752 nM and an IC50 [2] of 19 nM.

`COc1cccc(-c2cn3c(=O)/c(=C/c4cc(F)c(O)c(OC)c4)sc3n2)n1` [Example 48, 2-[1-(3-Fluoro-4-hydroxy-5-methoxy-phenyl)-meth-(Z)-ylidene]-6-(6-methoxy-pyridin-2-yl)-imidazo[2,1-b]thiazol-3-one] gave an IC50 [1] of 1790 nM and an IC50 [2] of 20 nM.

`CCCOc1cc(/C=c2\sc3nc(-c4ccsc4)cn3c2=O)cc(Cl)c1O` [Example 131, 2-[1-(3-Chloro-4-hydroxy-5-propoxy-phenyl)-meth-(Z)-ylidene]-6-thiophen-3-yl-imidazo[2,1-b]thiazol-3-one] showed an IC50 [1] of 979 nM and an IC50 [2] of 26 nM.

`COc1cc(/C=c2\sc3nc(-c4ccc(N5CCCC5)cc4)cn3c2=O)cc(Cl)c1O` [Example 90, 2-[1-(3-Chloro-4-hydroxy-5-methoxy-phenyl)-meth-(Z)-ylidene]-6-(4-(pyrrolidin-1-yl)phenyl)-imidazo[2,1-b]thiazol-3-one] was tested, and the IC50 [1] was 16 nM and the IC50 [2] was 37 nM.

Work on `COc1cc(/C=c2\sc3nc(-c4ccc5c(c4)CC(=O)N5)cn3c2=O)cc(Cl)c1O` [Example 102, 5-{2-[1-(3-Chloro-4-hydroxy-5-methoxy-phenyl)-meth-(Z)-ylidene]-3-oxo-2,3-dihydro-imidazo[2,1-b]thiazol-6-yl}-1,3-dihydro-indol-2-one] yielded an IC50 [1] of 226 nM and an IC50 [2] of 12 nM.

Work on `COc1cc(/C=c2\sc3nc(-c4cccnc4)cn3c2=O)cc(F)c1O` [Example 71, 2-[1-(3-Fluoro-4-hydroxy-5-methoxy-phenyl)-meth-(Z)-ylidene]-6-(pyridin-3-yl)-imidazo[2,1-b]thiazol-3-one] yielded an IC50 [1] of 238 nM and an IC50 [2] of 20 nM.
